Usually melting point stands for the temperature, or range, at which the solid turns liquid. The compound `Cc1ccc(N(CCN2CCC(C(=O)c3ccc(F)cc3)CC2)C(=O)c2cccc(N)c2)cc1` yielded a melting point of 173 to 175 °C.
In turn, `COc1cc2cnnc(Cl)c2cc1OC` had a melting point of 195 to 197 °C.
Take `O=C(O)C1CCC(c2ccc(Cl)cc2)n2c(=O)n(CCS)c(=O)n21` (stereo not given): the melting point is 189 to 190 °C.
`COC1CC(NC(C)=O)C(OC(=O)c2ccccc2)C(CBr)O1` (stereo not given) registered a melting point of 173 °C.
As for `CN1C(=O)CC[C@]2(C)c3ccc(-c4cnc5ccccc5n4)cc3CC[C@@H]12`, the melting point lay within 129 to 135 °C.
`CC(C)(C)NC(=O)c1nn(-c2ccc(Cl)cc2)c2c1C1CCC2CC1`: the melting point fell in the range of 198 to 200 °C.
Consider `Cc1cccc(NC(=O)c2ccn3c2CSC3c2cccnc2)n1` (stereo not given), for which the melting point turned out to be 162 °C.
Next, `ClCCN(CCCl)CCCCOc1cccc(Nc2c3ccccc3nc3ccccc23)c1`: 126 to 127 °C.
In the case of `CC(C)(C)c1cc(N=C(O)c2cc(C(O)=Nc3cc(C(C)(C)C)c(O)c(C(C)(C)C)c3)c(C(=O)O)cc2C(=O)O)cc(C(C)(C)C)c1O`, the melting point was in the range of 304 to 306 °C.
`CCOC(=O)c1cn(C)c2cnc3cc(N4CCCC4)c(F)cc3c2c1=O` showed a melting point of 270 °C.
The compound `COc1c(Br)cc(-c2c3ccccc3cc3sc4ccccc4c23)cc1Br` had a melting point of 238 to 240 °C.
Next, `C=Cc1cc(C)cc(NC(C)=O)n1`: 140 °C.
As to `NS(=O)(=O)c1cc2cc(CBr)ccc2s1`, the melting point lay in the range of 171 to 173 °C.
For `CCOC(=O)N=C(NC(=O)Nc1ccc(C)cc1)SCC`, the melting point was in the range of 110 to 112 °C.
In the case of `c1ccc(COc2ccc(-c3cscn3)cc2)cc1`, the melting point is 109 to 110 °C.
In turn, `O=C(C=Cc1ccccc1)Nc1ccc(C(c2ccc(Cl)cc2)n2ccnc2)cc1` (stereo not given) returned a melting point of 244 °C.
The compound `CCCC1CCC(c2ccc(-c3ccc(N=C=S)cc3)cc2)CC1` (stereo not given) yielded a melting point of 149 °C.
`C(=C\c1nc2ccccc2n1-c1ccccn1)/c1ccco1` showed a melting point of 164 to 165 °C.
For the compound `Cc1ccccc1-c1cc(N2CCOCC2)ncc1C(N)=O`, the melting point lay in the range of 144 to 145 °C.
For `CCOC(=O)CCc1cc(OCOC)nn1Cc1ccc(Cl)cc1Cl`, the melting point was in the range of 47 to 49 °C.
For `CN(C(=O)Cc1ccc2oc(=O)[nH]c2c1)[C@H](CN1CC[C@H](O)C1)c1ccccc1` the value was 207 to 208 °C; for `Cc1ccc(N)cc1Nc1cc(-c2cccnc2)ccn1`, 183 to 186 °C.
Turning to `COc1cccc(-c2cc(S(=O)(=O)c3ccc(N)cc3)cc(N3CCCC3)n2)c1`, the melting point fell in the range of 214 to 215 °C.
As to `CCCc1nn(-c2ccc(C(F)(F)F)cn2)cc1CCCOc1c(C)cccc1CC(=O)O`, the melting point lay within 134 to 135 °C.
As to `NC(=O)N1C(=O)C(=C(OC(=O)c2ccccn2)c2cccs2)c2cc(F)c(Cl)cc21`, the melting point is 184 to 185 °C.
In turn, `FC(F)(F)c1ccc(-c2ccc3ccn(Cc4ccccc4)c3c2)cc1` registered a melting point of 83 to 85 °C.
In the case of `COc1ccc(C(=O)O)s1`, the melting point lay in the range of 167 to 168 °C.
On to `CC(C)(C)C(O)C(CS(=O)(=O)c1ccccc1)n1cncn1` (stereo not given), for which the melting point is 145 °C.
Compound `CCCc1nc(NCc2ccccn2)nc(Nc2cccc(C(C)C)c2)n1` came in with a melting point of 103 to 104 °C.
As to `CC(C)N(C(=O)c1c(Cl)cccc1[Si](C)(C)C)C(C)C`, the melting point is 96 to 97.5 °C.
On to `CSc1c(C(=O)O)ccc(Br)c1F`, for which the melting point was in the range of 126 to 129 °C.
For the compound `Cc1nc(-c2ccc(OCCCCCOc3ccc(C(=N)NO)cc3)cc2)c(C(C)C)s1`, the melting point worked out at 97 °C.
In turn, `Fc1cc2c(cc1CN1CCOCC1)Cc1c(-c3ccsc3)n[nH]c1-2` came in with a melting point of 222 °C.
For `CS(=O)(=O)c1ccc(-c2cnn(-c3ccc(F)c(Cl)c3)c(=O)c2Cc2ccccc2)cc1` the value was 164 to 166 °C; for `CCCCCCCCCCCCCCCCSCC(CNS(=O)(=O)CCCI)NC(C)=O` (stereo not given), 75 to 76 °C.

These data come from a melting point compilation (Tetko et al.; mined from patent text by program, amines drawn as free bases though some values may be those of a salt).
